From patent US11160796B2, “Anti-androgens for the treatment of non-metastatic castration-resistant prostate cancer” (priority 2017, dated 2021)

Columns and labels:
[1] = target: P-gp (Homo sapiens, UniProt P08183); assay: In vitro transporter substrate assessment: P-gp
[2] = In vivo rat (bone marrow) micronucleus assay
[3] = Physicochemical description (ionization, solubility)
Source text: The Chemical name is (4-[7-(6-Cyano-5-trifluoromethylpyridin-3-yl)-8-oxo-6-thioxo-5,7-diazaspiro[3.4]oct-5-yl]-2-fluoro-N-methylbenzamide). Apalutamide is a white to slightly yellow powder.

[4] = Drug-drug interaction studies: effect of other medications on apalutamide; format: in vivo, human
[5] = tested on: LNCaP/AR cells; conditions: literature; cited from earlier work
[6] = tested on: CYP2B6 and CYP2C8; assay: In vitro CYP inhibition: CYP2B6 and CYP2C8
[7] = tested on: non-metastatic castration-resistant prostate cancer (NM-CRPC); assay: Phase III study (SPARTAN, Study 1): efficacy; format: in vivo, human; conditions: for Metastasis Free Survival (MFS), median: 240 mg once daily + ADT, ITT, BICR
Source text: The study consisted of a Screening Phase of up to 35 days before randomization to establish eligibility and document baseline measurements, a double-blind Treatment Phase (28-day treatment cycles; continuous dosing), and a Long-term Follow-up Phase to monitor PFS, survival status, subsequent prostate cancer therapy, PRO, and MRU. […] The randomization was stratified as follows: • PSADT: <6 months vs. >6 months; • Bone-sparing agent use: Yes vs. No; and • Loco-regional disease: N0 vs. N1 (ie, nodal disease).
All patients who were not surgically castrated received ADT continuously throughout the study. […] Systemic corticosteroids were not allowed at study entry. […] Patients randomized to either arm were to continue treatment until disease progression defined by blinded central imaging review (BICR), initiation of new treatment, unacceptable toxicity or withdrawal.
With the softgel capsules only, subjects could switch to a twice daily dosing regimen (4 tables each period) if gastrointestinal issues arose with the once daily schedule. […] For the purposes of this study, a treatment cycle consisted of 4 weeks (28 days).
The primary efficacy endpoint was metastasis-free survival (MFS), defined as the time from randomization to the time of first evidence of BICR-confirmed bone or soft tissue distant metastasis or death due to any cause, whichever occurred first. Metastasis-free survival data for subjects without metastasis or death were censored on the date of the last tumor assessment (or, if no tumor assessment was performed after the baseline visit, at the date of randomization). Censoring rules based on FDA and CHMP guidance were applied for analyses of MFS (referred to in the text as US censoring or ex-US censoring).
Patients were stratified by Prostate Specific Antigen (PSA) Doubling Time (PSADT), the use of bone-sparing agents, and locoregional disease. Patients were required to have a PSADT≤10 months and confirmation of non-metastatic disease by blinded independent central review (BICR).
The major efficacy outcome measure of the study was metastasis-free survival (MFS), defined as the time from randomization to the time of first evidence of BICR-confirmed distant metastasis, defined as new bone or soft tissue lesions or enlarged lymph nodes above the iliac bifurcation, or death due to any cause, whichever occurred first. Additional efficacy endpoints were time to metastasis (TTM), progression-free survival (PFS) which also includes locoregional progression, time to symptomatic progression, and overall survival (OS).

[8] = target: T1, human cytochrome P450 isoform CYP2C8 (Homo sapiens, UniProt P10632); assay: Cytochrome P450 inhibition: CYP2C8; format: in vitro ADME
T1 sequence (P10632 1-490): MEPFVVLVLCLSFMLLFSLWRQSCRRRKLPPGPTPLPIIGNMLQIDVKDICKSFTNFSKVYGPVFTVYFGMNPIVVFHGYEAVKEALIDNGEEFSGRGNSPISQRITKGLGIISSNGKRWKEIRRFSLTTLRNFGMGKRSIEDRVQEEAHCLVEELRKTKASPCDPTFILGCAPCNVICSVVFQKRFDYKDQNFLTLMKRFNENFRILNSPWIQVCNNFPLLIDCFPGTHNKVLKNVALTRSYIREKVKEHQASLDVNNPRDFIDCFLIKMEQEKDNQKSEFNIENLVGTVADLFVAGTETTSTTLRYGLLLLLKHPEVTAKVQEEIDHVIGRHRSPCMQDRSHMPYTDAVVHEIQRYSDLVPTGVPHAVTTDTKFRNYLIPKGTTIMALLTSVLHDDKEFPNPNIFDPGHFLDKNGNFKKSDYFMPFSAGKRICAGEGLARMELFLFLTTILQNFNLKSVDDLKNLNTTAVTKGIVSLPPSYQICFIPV

[9] = Fertility study in male rats; format: in vivo
[10] = tested on: human CYP2B6 and CYP3A4; conditions: hepatocytes

Chain of P-gp (P08183 whole entry): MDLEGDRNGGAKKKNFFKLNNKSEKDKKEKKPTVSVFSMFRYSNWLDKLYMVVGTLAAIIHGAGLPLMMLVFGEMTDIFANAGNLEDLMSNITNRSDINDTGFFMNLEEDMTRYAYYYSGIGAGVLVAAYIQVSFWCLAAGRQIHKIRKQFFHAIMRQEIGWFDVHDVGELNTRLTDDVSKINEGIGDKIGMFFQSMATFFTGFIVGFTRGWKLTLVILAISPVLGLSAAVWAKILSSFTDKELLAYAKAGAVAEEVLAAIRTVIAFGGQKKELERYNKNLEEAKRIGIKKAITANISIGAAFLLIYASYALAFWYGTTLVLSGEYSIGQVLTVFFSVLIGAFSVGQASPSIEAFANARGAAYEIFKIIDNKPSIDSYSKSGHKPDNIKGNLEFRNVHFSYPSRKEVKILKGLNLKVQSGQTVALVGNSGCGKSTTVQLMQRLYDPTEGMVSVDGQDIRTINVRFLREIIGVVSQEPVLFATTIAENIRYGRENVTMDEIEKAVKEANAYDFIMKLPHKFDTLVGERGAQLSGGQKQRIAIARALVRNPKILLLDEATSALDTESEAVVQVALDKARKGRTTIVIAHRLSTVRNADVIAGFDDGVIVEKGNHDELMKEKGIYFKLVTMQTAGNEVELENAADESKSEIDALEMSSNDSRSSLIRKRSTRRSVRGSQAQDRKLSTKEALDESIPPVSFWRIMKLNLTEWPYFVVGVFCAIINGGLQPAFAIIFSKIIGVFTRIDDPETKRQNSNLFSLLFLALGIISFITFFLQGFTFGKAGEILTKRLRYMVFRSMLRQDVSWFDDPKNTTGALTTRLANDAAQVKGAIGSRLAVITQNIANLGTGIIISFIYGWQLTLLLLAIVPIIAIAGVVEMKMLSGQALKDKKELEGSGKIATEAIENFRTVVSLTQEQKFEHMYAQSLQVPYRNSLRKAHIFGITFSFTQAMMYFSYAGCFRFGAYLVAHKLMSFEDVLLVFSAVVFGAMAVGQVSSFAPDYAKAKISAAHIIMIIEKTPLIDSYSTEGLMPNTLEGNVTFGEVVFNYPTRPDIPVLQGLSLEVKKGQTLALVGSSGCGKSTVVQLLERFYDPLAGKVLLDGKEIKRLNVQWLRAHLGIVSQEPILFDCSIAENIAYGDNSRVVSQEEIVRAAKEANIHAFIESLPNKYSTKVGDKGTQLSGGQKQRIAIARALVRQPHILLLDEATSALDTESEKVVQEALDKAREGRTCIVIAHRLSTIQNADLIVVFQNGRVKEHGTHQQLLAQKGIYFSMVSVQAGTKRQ

In the case of `CNC(=O)c1ccc(N2C(=S)N(c3cnc(C#N)c(C(F)(F)F)c3)C(=O)C23CCC3)cc1F` [apalutamide, 4-[7-(6-cyano-5-trifluoromethylpyridin-3-yl)-8-oxo-6-thioxo-5,7-diazaspiro[3.4]oct-5-yl]-2-fluoro-N-methylbenzamide], the “substrate for P-gp” value [1] is reported as “substrates for P-gp”, the “genotoxicity, in vivo rat micronucleus assay” value [2] is reported as “not genotoxic” and the solubility ([3]; aqueous media over a wide range of pH values) is reported as “practically insoluble”. The ionization ([3]; relevant physiological pH condition) was “not ionizable”, the “increase in AUC of apalutamide” value ([4]; 240 mg single dose with gemfibrozil) was 68% and the “decrease in Cmax of apalutamide” value ([4]; 240 mg single dose with gemfibrozil (strong CYP2C8 inhibitor)) was 21%. For the same compound, the AUC of apalutamide ([4]; 240 mg single dose with itraconazole) was “similar”, the “decrease in Cmax of apalutamide” value ([4]; 240 mg single dose with itraconazole (strong CYP3A4 inhibitor)) was 22% and the “agonist activity in the context of AR overexpression” value [5] was “lacks the partial agonist activity”. The “inhibition of CYP2B6 and CYP2C8” value [6] was “moderate inhibitors”, the “Metastasis Free Survival (MFS), median” value [7] was 41 months and the “Metastasis Free Survival (MFS), median” value ([7]; listed as Apalutamide) was 40.5 months. The “decrease in the risk of symptomatic progression” value ([7]; compared with placebo) was 55%, the “Progression-free Survival (PFS), median” value ([7]; in vivo) was 40.5 months and the “Time to Metastasis (TTM), median” value ([7]; in vivo) was 40.5 months. The “MFS HR, subgroup PSA doubling time of >6 months” value ([7]; non-stratified analysis) was 0.30, the “MFS HR, subgroup PSA doubling time of months” value ([7]; non-stratified analysis) was 0.29 and the “MFS HR, total study population” value ([7]; non-stratified analysis) was 0.30. The “decrease in the risk of distant metastasis or death” value ([7]; vs placebo) was 72%, the IC50 [8] was 13.9 µM and the “live fetuses (pre- and/or post-implantation loss)” value ([9]; 4 weeks of 150 mg/kg/day) was “reduced number of live fetuses”. The “dose with decreased sperm concentration and motility, copulation and fertility rates, reduced secondary sex gland and epididymis weights” value ([9]; 4 weeks of dosing, male rats) was over 25 mg/kg/day, the “reversibility of effects on male rats” value ([9]; after 8 weeks from the last administration) was “reversible” and the “CYP3A4 and CYP2B6 induction” value [10] was “moderate to strong CYP3A4 and CYP2B6 inducers”.
